Reference: PMC6433685, “Histone deacetylase inhibitor LMK235 attenuates vascular constriction and aortic remodelling in hypertension” (Journal of Cellular and Molecular Medicine, 2019)

What was measured:
[1] = tested on: bisphenol A‐induced hypertension; set-up: method as in PMID 25103225; conditions: cited from earlier work
[2] = tested on: rat mesenteric arteries; experiment: Isometric tension: relaxation of U46619-induced contraction in rat mesenteric artery rings; set-up: species or system Sprague‐Dawley rats; conditions: mesenteric artery rings pretreated with 100 μmol/L for 30 minutes
Source text: Male Sprague‐Dawley rats were purchased from Orient Bio (Gyeonggi‐do, South Korea). The thoracic aortas and mesenteric arteries were excised and immersed in an ice‐cold, modified Krebs solution composed of NaCl (115 mmol/L), KCl (4.7 mmol/L), CaCl2 (2.5 mmol/L), MgCl2 (1.2 mmol/L), NaHCO3 (25 mmol/L), KH2PO4 (1.2 mmol/L) and dextrose (10 mmol/L). Mesenteric arteries are secondary branches of the main mesenteric trunk. The aortas and mesenteric arteries were cleaned by removing adherent connective tissue, soaked in the Krebs‐bicarbonate solution and cut into four ring segments (3.5 mm in length), as described previously.14 Some rings were denuded of endothelium by gently rubbing the internal surface with the edge of the forceps. Each aortic ring was suspended in a water‐jacketed organ bath (6 mL) maintained at 37°C and aerated with a mixture of 95% O2 and 5% CO2. Each ring was connected to an isometric force transducer (Danish Myo Technology, Skejbyparken, Aarhus N, Denmark). Rings were stretched to an optimal resting tension of 2.0 g, which was maintained throughout the experiment. Each ring was equilibrated in the organ bath solution for 90 minutes before the experiment involving the contractile response to 50 mmol/L of KCl addition. […]

[3] = tested on: HUVECs; experiment: Nitric oxide production in HUVECs (DAF-FM DA fluorescence); format: cell-based, Human; conditions: 250 μmol/L, 24 h
Description: A10 vascular smooth muscle cells (VSMCs) were incubated with Dulbecco's modified Eagle medium (DMEM) with 4500 mg/L glucose containing 10% foetal bovine serum (FBS). Passages were carried out every 2 or 3 days. VSMCs were maintained in DMEM in the presence of 10% FBS with low glucose (1000 mg/L). Human umbilical vein endothelial cells (HUVECs) were obtained from Gibco (Waltham, MA, USA). HUVECs were grown in an endothelial cell basal medium (EBM) with EGM‐2 bullet kit (Lonza, Walkersville, MD) and maintained at 37°C under 5% CO2. Cells were cultured for 5‐7 passages.
We used a nitric oxide‐sensitive fluorescence probe, 4‐amino‐5‐methylamino‐2′,7′‐difluorescein diacetate (DAF‐FM DA, Cayman), for nitric oxide detection. HUVECs were seeded on coverslips in 12‐well plates (1.5 × 10^5/mL). Cells, serum‐starved with EBM for 16 hour, were treated with LMK235 (1 μmol/L) or L‐NAME (250 μmol/L) for 24 hour and incubated with DAF‐FM DA (2.5 μmol/L) for 45 minutes. Next, the cells were fixed with 70% ethanol for 45 minutes and mounted using Prolog Gold antifade reagent and DAPI (Invitrogen, USA).

[4] = tested on: angiotensin II‐induced hypertensive mice; conditions: cited from earlier work; for elevated BP: angiotensin II-induced hypertensive mice
[5] = tested on: SHRs; conditions: cited from earlier work

COc1ccc(S(=O)(=O)N(CCO)c2ccccc2CN(C)C/C=C/c2ccc(Cl)cc2)cc1 [KN 93]
bisphenol A-induced hypertension [1]: inhibit

COC(=O)[C@@H](N)CCCNC(N)=N[N+](=O)[O-] [L‐NAME, reference compound]
LMK235-induced vascular relaxation [2]: inhibited vascular relaxation | LMK235-induced increase of nitric oxide production [3]: reduced

Cn1c(/C=C/C(=O)NO)ccc1/C=C/C(=O)c1cccc(F)c1 [MC1568]
vascular hypertrophy and hyperplasia ([4]; angiotensin II-induced hypertensive mice and VSMCs): attenuates | elevated BP [4]: lowered elevated BP

CC(/C=C/C(=O)NO)=C\[C@@H](C)C(=O)c1ccc(N(C)C)cc1 [TSA, Trichostatin A]
augmented angiotensin II-induced contraction in the mesenteric artery ([5]; SHRs): reversed | systolic BP ([5]; SHRs): decreased systolic BP

CN1CCc2c(c3ccccc3n2Cc2ccc(C(=O)NO)cc2)C1 [tubastatin A]
elevated BP [4]: not

CCCC(CCC)C(=O)O [valproic acid]
BP ([5]; SHRs or DOCA-salt-induced hypertensive rats): attenuated BP | cardiac AT1 mRNA levels ([5]; SHRs): reduced
